# Measurements from patent US9914955B2, “Genetically encoded FRET-based MMP-9 activity biosensor and use thereof” (Instytut Biologii Doświadczalnej im. Marcelego Nenckiego …, priority 2013, dated 2018).
# Legend:
# [1] = system: human auto-activating MMP-9; test: In vitro cleavage of the biosensor in HEK293 lysate by auto-activating MMP-9, western blot; type: biochemical; conditions: inhibitor 25 μM final concentration
# HEK293 cell lysate = test: Baseline cleavage of the biosensor in untreated HEK293 lysate, western blot; type: biochemical
# Procedure: Two days post-transfection HEK293 cells were washed one with PBS, scraped from the plate and lysed for 1 h at 4° C. with the following buffer: 50 mM Tris-Cl pH 7.5, 1% Triton X-100, 10 mM CaCl2, 0.02% NaN3, 1 μM ZnCl2. The lysis was performed without protease inhibitors since it was feared that they might block the activity of our auto-activating MMP-9. The lysate was then centrifuged at 13400 rpm for 15′ at 4° C. to remove cell debris. Equal amount of the cleared lysate were used in the subsequent reactions. […] GM6001 inhibitor was used in 25 μM final concentration. Reactions were stopped at either 30′, 1 h, 4 h or after overnight incubation at 37° C. with the addition of SDS-PAGE Sample Buffer and heating to 100° C. for 10 minutes. Sensor was detected on Western Blot with the anti-GFP antibody.
compound,measurement,setting,value
CNC(=O)[C@H](Cc1c[nH]c2ccccc12)NC(=O)[C@@H](CC(=O)NO)CC(C)C [GM6001],effect of inhibitor on biosensor cleavage by auto-activating MMP-9,[1],blocked
same,effect of inhibitor on baseline cleavage of the biosensor,HEK293 cell lysate,"at least partially, blocked"
